The text below walks through data of patent EP0755386B1, “BENZAMIDE DERIVATIVE, COMPOSITIONS CONTAINING SAID DERIVATIVE AND USE THEREOF” (Romark Laboratories, L.C., priority 1994, dated 1995).

One series has as its system Ascaris lumbricoides. Briefly: Activity of aqueous compositions on helminths. Conditions: aqueous composition (100 g) containing 10 g active agent.
The test system of another series is Taenia solium. In words: Activity of aqueous compositions on helminths. Conditions: aqueous composition (100 g) containing 10 g active agent.
In another series the test system is Taenia saginata. Briefly: Activity of aqueous compositions on helminths. Conditions: aqueous composition (100 g) containing 10 g active agent.
In a further series the test system is Epidermophyton flocosum. Briefly: Activity of aqueous compositions on fungus. Conditions: aqueous composition (100 g) containing 10 g active agent.
The test system of a further series is Microsporum audovini. Briefly: Activity of aqueous compositions on fungus. Conditions: aqueous composition (100 g) containing 10 g active agent.
The subject of the next series is Necator americanus. In words: Activity of aqueous compositions on helminths. Conditions: aqueous composition (100 g) containing 10 g active agent.
For series [1], the system named is Strongyloïdes stercoralis. In words: Activity of aqueous compositions on helminths. Conditions: aqueous composition (100 g) containing 10 g active agent.
Text: (§2) Aqueous compositions (100 g) containing 10 g of an active agent have been prepared.
The test system of another series is Septata intestinalis. In words: Activity of aqueous compositions on protozoa. Conditions: aqueous composition (100 g) containing 10 g active agent.
Another series concerns Trichuris trichiura. Briefly: Activity of aqueous compositions on helminths. Conditions: aqueous composition (100 g) containing 10 g active agent.
The test system of a further series is Staphylococcus aureus. Briefly: Activity of aqueous compositions on aerobic bacteria. Conditions: aqueous composition (100 g) containing 10 g active agent.
A further series concerns Hymenolepis nana. Briefly: Activity of aqueous compositions on helminths. Conditions: aqueous composition (100 g) containing 10 g active agent.
In another series the test system is Anycylosloma duodenale. Briefly: Activity of aqueous compositions on helminths. Conditions: aqueous composition (100 g) containing 10 g active agent.
In a further series the test system is Bladtocystis hominis. Briefly: Activity of aqueous compositions on protozoa. Conditions: aqueous composition (100 g) containing 10 g active agent.
For another series, the system named is Protens vulgaris. In words: Activity of aqueous compositions on aerobic bacteria. Conditions: aqueous composition (100 g) containing 10 g active agent.
A further series relates to Escherichia coli. Described as above. Conditions: aqueous composition (100 g) containing 10 g active agent.
The subject of a further series is Enterocytozoon bieneusi. Briefly: Activity of aqueous compositions on protozoa. Conditions: aqueous composition (100 g) containing 10 g active agent.
For another series, the system named is Cryptosporidium parvum. In words: Activity of aqueous compositions on protozoa. Conditions: aqueous composition (100 g) containing 10 g active agent.
For the next series, the system named is Candida Albicans. In words: Activity of aqueous compositions on fungus. Conditions: aqueous composition (100 g) containing 10 g active agent.
Series [2] has as its system Trychophyton Mentagrophytes. Briefly: Activity of aqueous compositions on fungus. Conditions: aqueous composition (100 g) containing 10 g active agent.
Text: as §2
A further series has as its system Enterobius vermicularis. In words: Activity of aqueous compositions on helminths. Conditions: aqueous composition (100 g) containing 10 g active agent.
The next series relates to Clostridum species. In words: Activity of aqueous compositions on anaerobic bacteria. Conditions: aqueous composition (100 g) containing 10 g active agent.
For a further series, the system named is Encamoeba dispar. Briefly: Activity of aqueous compositions on protozoa. Conditions: aqueous composition (100 g) containing 10 g active agent.
The subject of a further series is Peptostreptococcus SPP. In words: Activity of aqueous compositions on anaerobic bacteria. Conditions: aqueous composition (100 g) containing 10 g active agent.
Another series relates to Bacceroides species. Described as above. Conditions: aqueous composition (100 g) containing 10 g active agent.
Another series deals with Diencamoeba fragilis. Briefly: Activity of aqueous compositions on protozoa. Conditions: aqueous composition (100 g) containing 10 g active agent.
The test system of a further series is Encamoeba histolytica. Briefly: Activity of aqueous compositions on protozoa. Conditions: aqueous composition (100 g) containing 10 g active agent.
In another series the test system is Balancidium coli. Briefly: Activity of aqueous compositions on protozoa. Conditions: aqueous composition (100 g) containing 10 g active agent.
For the next series, the system named is Peptococcus species. Briefly: Activity of aqueous compositions on anaerobic bacteria. Conditions: aqueous composition (100 g) containing 10 g active agent.
The subject of series [3] is Trichomonas vaginalis. Briefly: Activity of aqueous compositions on protozoa. Conditions: aqueous composition (100 g) containing 10 g active agent.
Text: as §2
Another series deals with Entamoeba coli. In words: Activity of aqueous compositions on protozoa. Conditions: aqueous composition (100 g) containing 10 g active agent.
The next series deals with Isospora belli. Briefly: Activity of aqueous compositions on protozoa. Conditions: aqueous composition (100 g) containing 10 g active agent.
The next series relates to Endolimax nana. Briefly: Activity of aqueous compositions on protozoa. Conditions: aqueous composition (100 g) containing 10 g active agent.
The next series has as its system Giarda lamblia. Briefly: Activity of aqueous compositions on protozoa. Conditions: aqueous composition (100 g) containing 10 g active agent.
For another series, the system named is Trichomonas intestinalis. Briefly: Activity of aqueous compositions on protozoa. Conditions: aqueous composition (100 g) containing 10 g active agent.
The subject of another series is Fusobacterium SPP. In words: Activity of aqueous compositions on anaerobic bacteria. Conditions: aqueous composition (100 g) containing 10 g active agent.
Another series deals with HBV. Briefly: Antiviral activity against HBV replication in cultures of 2.2.15 cells. The format is cell-based. Conditions: for selective index SI: HBV, CC 50/EC 50; for EC50: Hepatitis B virus, 216 h, read-out: effective concentration (EC 50). Here is the method: (§1) The protocol for essaying anti-HBV compounds in cultures of 2.2.15 cells can be briefly summarized as follows (Korba and Milman, 1991, Antiviral Res. 217:217) : • * Chronically HBV-producing human liver cells (Acs, et al, 1987, PNAS 84:4641) are seeded into 24 well tissue culture plates and grown to confluence. • * Test compounds are then added daily for a continuous 9 day period. Culture medium (changed daily during the treatment period) is collected and stored for analysis of extracellular (virion) HBV DNA after 0,3,6 and 9 days of treatment. • * Treated cells are lysed 24 hours following day 9 of treatment for the analysis of intracellular HBV genomic forms. • * HBV DNA is then analyzed in a quantitative and qualitative manner for overall levels of HBV DNA (both extracellular and intracellular DNA) and the relative rate of HBV replication (intracellular DNA). The protocol for determining toxicity of compounds in cultures of 2.2.15 cells can be briefly summarized as follows (Korba and Gerin, submited for publication) : • * 2.2.15 cells were grown to confluence in 96 well fat-bottomed tissue culture plates and treated with compounds (in 0.2 ml culture medium/well) as described above. Four concentrations of each compound were assayed, each in triplicate cultures, 3 to 10-fold steps. • * Untreated control cultures were maintained on each 96 well plate.

The nature of series [4]: Toxicity in cultures of 2.2.15 cells, neutral red dye uptake. The format is cell-based. Conditions: human, 50 % inhibit of cell proliferation, read-out: cytotoxic concentration (CC 50). As to the method:
as §1

Series [5] deals with Trichomonas vaginalis. In words: In vitro studies against Trichomonas vaginalis. The format is cell-based. Conditions: for MIC: in vitro, Trichomonas vaginalis, read-out: Minimum Inhibitory Concentration.

In brackets after ≈: the same amount, converted by molar mass. Where two headings read alike, the source gives them in different places.

Text for Anycylosloma duodenale: as §2
Text for Ascaris lumbricoides: as §2
Text for Bacceroides species: as §2
Text for Balancidium coli: as §2
Text for Bladtocystis hominis: as §2
Text for Candida Albicans: as §2
Text for Clostridum species: as §2
Text for Cryptosporidium parvum: as §2
Text for Diencamoeba fragilis: as §2
Text for Encamoeba dispar: as §2
Text for Encamoeba histolytica: as §2
Text for Endolimax nana: as §2
Text for Entamoeba coli: as §2
Text for Enterobius vermicularis: as §2
Text for Enterocytozoon bieneusi: as §2
Text for Epidermophyton flocosum: as §2
Text for Escherichia coli: as §2
Text for Fusobacterium SPP: as §2
Text for Giarda lamblia: as §2
Text for Hymenolepis nana: as §2
Text for Isospora belli: as §2
Text for Microsporum audovini: as §2
Text for Necator americanus: as §2
Text for Peptococcus species: as §2
Text for Peptostreptococcus SPP: as §2
Text for Protens vulgaris: as §2
Text for Septata intestinalis: as §2
Text for Staphylococcus aureus: as §2
Text for Taenia saginata: as §2
Text for Taenia solium: as §2
Text for Trichomonas intestinalis: as §2
Text for Trichuris trichiura: as §2

`Cc1ncc([N+](=O)[O-])n1CCO` [Compound P5, Metronidazole]: the ACTIVITY result in the series with Ascaris lumbricoides, in the series with Taenia solium, in the series on Taenia saginata, in the series on Epidermophyton flocosum, in the series with Microsporum audovini and in the series with Necator americanus was “No” throughout. Moreover, the ACTIVITY result (in [1]; in the series with Septata intestinalis; in the series on Trichuris trichiura; with Staphylococcus aureus; with Hymenolepis nana; in the series with Anycylosloma duodenale) was “No” each time. Also, the ACTIVITY result in the series with Bladtocystis hominis, in the series on Protens vulgaris, in the series on Escherichia coli, with Enterocytozoon bieneusi, in the series with Cryptosporidium parvum and in the series with Candida Albicans was “No” in each case. Also, the ACTIVITY result (in series [2]; in the series on Enterobius vermicularis) was “No” each time.
With `COC(=O)Nc1nc2ccc(C(=O)c3ccccc3)cc2[nH]1` [Compound P4, Mebendazole], the ACTIVITY entry in the series with Clostridum species, in the series with Taenia solium, in the series on Encamoeba dispar, with Peptostreptococcus SPP, with Bacceroides species and with Taenia saginata was “No” each time. Also, the ACTIVITY result (in the series on Diencamoeba fragilis; in the series with Epidermophyton flocosum; with Encamoeba histolytica; in the series with Microsporum audovini; in series [1]; with Septata intestinalis) was “No” in each case. The ACTIVITY entry in the series on Balancidium coli, in the series on Staphylococcus aureus, in the series with Hymenolepis nana, in the series with Peptococcus species, in the series on Bladtocystis hominis and in the series on Protens vulgaris was “No” each time. Further, the ACTIVITY entry with Trichomonas vaginalis [3], in the series with Entamoeba coli, with Isospora belli, with Escherichia coli, in the series on Enterocytozoon bieneusi and with Cryptosporidium parvum was “No” throughout. The ACTIVITY entry (in the series on Candida Albicans; in the series on Endolimax nana; in the series with Giarda lamblia; in the series with Trichomonas intestinalis; with Fusobacterium SPP; in [2]) was “No” each time.
On to `CCCSc1ccc2nc(NC(=O)OC)[nH]c2c1` [Compound P3, Albendazole], for which the ACTIVITY result with Clostridum species, in the series with Taenia solium, in the series with Encamoeba dispar, in the series on Peptostreptococcus SPP, with Bacceroides species and in the series with Taenia saginata was “No” each time. In addition, the ACTIVITY result (with Diencamoeba fragilis; with Encamoeba histolytica; in [1]; in the series with Septata intestinalis; in the series with Balancidium coli; in the series on Staphylococcus aureus) was “No” throughout. Moreover, the ACTIVITY entry in the series with Hymenolepis nana, with Peptococcus species, in the series on Bladtocystis hominis, in the series with Protens vulgaris, in the series on Trichomonas vaginalis [3] and in the series on Entamoeba coli was “No” in each case. In addition, the ACTIVITY entry in the series with Escherichia coli, in the series on Enterocytozoon bieneusi, in the series on Cryptosporidium parvum, in the series on Candida Albicans, with Endolimax nana and in the series with Giarda lamblia was “No” throughout. For the same compound, the ACTIVITY result with Trichomonas intestinalis and in the series on Fusobacterium SPP was “No” each time.
For `Nc1ccn([C@H]2CC[C@@H](CO)O2)c(=O)n1` [Zalcitabine], in the series on HBV, the “selective index SI” value is listed as “about 145”. The EC50 in the series on HBV (HBV replication in 2.2.15 cells, 9 day treatment) came out at 1.8 ± 0.2 µg/mL (≈ 8.52 µM). Besides, the CC50 at 9 days in series [4] was 261 ± 24 µg/mL (≈ 1240 µM).
On to `CC(=O)Oc1ccccc1C(=O)Nc1ncc([N+](=O)[O-])s1` [Compound B, 2-(acetolyloxy)-N-(5-nitro 2-thiazolyl) benzamide], for which the MIC with Trichomonas vaginalis [5] lay in the range of 0.5 to 1.25 µg/mL (≈ 1.63 to 4.07 µM).
For the compound `O=C(Nc1ncc([N+](=O)[O-])s1)c1ccccc1O` [Compound A, 2-(hydroxy)-N-(5-nitro-2-thiazolyl) benzamide], in the series with Trichomonas vaginalis [5] (in vitro studies), the onset of action entry is listed as “substantially immediate action”. The MIC with Trichomonas vaginalis [5] lay within 1 to 1.25 µg/mL (≈ 3.77 to 4.71 µM). For the same compound, in the series with HBV, the “selective index SI” value is “higher than 500” and the EC50 turned out to be 1.8 ± 0.1 µg/mL (≈ 6.79 µM). For the same compound, the CC50 at 9 days in series [4] is > 1000 µg/mL.
